In general, GI50 refers to the concentration that inhibits growth by half. Low readings indicate more potent growth inhibition, high ones less potent growth inhibition.

Converted amounts (≈) assume the structure as drawn.

Assay type in all cases: cell-based
Test [1] has as its system human liver cancer HepG2 cell. Description: Cytotoxicity test 4 (WST method, 8 hours with sample liquid). As to conditions: total cultivation 72 hours, as CPT concentration.
Test [2] deals with human breast cancer MDA-MB-231 cell. Nature of the test: Cytotoxicity test 5 (WST method, 8 hours with sample liquid). Conditions: MDA-MB-231, human breast cancer, total cultivation 72 hours, as CPT concentration. As to the method: The human breast cancer MDA-MB-231 cell, which had been suspended in 90 μIL of a medium, was seeded to a 96-well plate so that the cell would be contained at a concentration of about 5000 cells per well, and cultivated under an atmosphere of 37° C. and 5% CO2 overnight. The medium was formed of RPMI1640 (Gibco™, Invitrogen) and 10% Fetal Bovine Serum (FBS, biowest). Subsequently, each of sample liquids at various DTX concentrations obtained by diluting the micelle solution in Example 2 and the micelle solution in Comparative Example 1 with the medium was added to each well (10 μL per well), […] […] From each well, the absorbance (Abs450) of light at a wavelength of 450 nm was measured, and the cell growth rate (% cell growth) was calculated based on the below-indicated mathematical equation. It should be noted that “Abs450 value of control” in the mathematical equation means an absorbance obtained from a well in which the above-mentioned cultivation has been performed using a culture liquid free of DTX. % cell growth=[(Abs450 value after addition of sample liquid)−(Abs450 value of blank)]/[(Abs450 value of control)−(Abs450 value of blank)]×100 […]

The subject of test [3] is human prostate cancer DU145 cell. Nature of the test: Cytotoxicity test 3 (WST method, 8 hours with sample liquid). As to conditions: DU-145, total cultivation 72 hours, as CPT concentration.

Consider `CC[C@@]1(O)C(=O)OCc2c1cc1n(c2=O)Cc2cc3ccccc3nc2-1` [Solution, camptothecin], for which the GI50 was 0.04 µg/mL (≈ 0.115 µM) in test [1], 1 µg/mL (≈ 2.87 µM) in test [2] and 0.01 µg/mL (≈ 0.0287 µM) in test [3].
